The text below walks through data of patent publication US11638716B2, “Compounds, compositions, and methods for the treatment of disease” (F-star Therapeutics, Inc., priority 2017, dated 2023).

pEC50: −log10 of the molar value.

Format in all cases: cell-based
The subject of one assay is IRF. Briefly: In vitro induction of IRF in THP1 dual cells (Lucia reporter, ISG54 promoter). How it is done:
(§1) Example 2. In Vitro Induction of IRF and NF-κβ in THP1 Cells
(§2) THP1 dual cells grown in complete media were treated with various concentrations of a compound of the present disclosure or DMSO control. Dual cells carry both secreted embryonic alkaline phosphatase (SEAP) reporter gene under the control of an IFN-β minimal promoter fused to five copies of the NF-kB consensus transcriptional response element to measure NF-kB activity and Lucia reporter gene under the control of an ISG54 minimal promoter to measure IRF activity. After 20 h incubation, IRF activity was assessed using QUANTI-luc to measure levels of Lucia and NF-kB activity was determined by measure SEAP levels at 620-655 nm. % induction was calculated from fold change in luminescence/absorbance compared to DMSO treated sample. […] EC50 values were generated by curve fit in Xlfit.
(§3) Cells grown in complete media were treated with various concentrations of a compound of the disclosure or DMSO control. Dual cells carry both secreted embryonic alkaline phosphatase (SEAP) reporter gene under the control of an IFN-β minimal promoter fused to five copies of the NF-kB consensus transcriptional response element to measure NF-kB activity and Lucia reporter gene under the control of an ISG54 minimal promoter to measure IRF activity. After 20 h incubation, IRF activity was assessed using QUANTI-luc to measure levels of Lucia and NF-kB activity was determined by measure SEAP levels at 620-655 nm. % induction was calculated from fold change in luminescence/absorbance compared to DMSO treated sample. EC50 values are generated by curve fit in Xlfit.

The test system of another assay is NF-κβ. The assay is described as follows: In vitro induction of NF-κβ in THP1 dual cells (SEAP reporter). How it is done: as §1, §2, §3
The test system of assay [1] is RAW-Lucia-ISG-STING KO cells. Briefly: IRF-type I IFN secreted luciferase in RAW-Lucia-ISG-STING KO cells. As to conditions: compound alone, 19 hours. The protocol:
FIG. 4 depicts RAW-Lucia-ISG-WT and RAW-Lucia-ISG-STING KO cells were stimulated with compound 2 or compound 4, alone for 19 hours. Activity of secreted luciferase (IRF-type I IFN activity) in cell culture supernatant was measured using Invivogen's Quanti-luc. Data is shown as fold induction over DMSO treated cells (mean±standard deviation of triplicate wells per stimulant). EC50 values were calculated using XLfit.

The next assay concerns STING KO cells. The assay is described as follows: IRF and NF-kB reporter activity in STING KO cells. Particulars: 20 hours. How it is done: FIG. 21 depicts cells stably expressing both or either one of the reporters to measure IRF and NF-kB activity were treated with a range of concentrations of compound 1 or DMSO control for 20 hours. IRF activity was assessed using QUANTI-luc to measure levels of Lucia and NF-kB activity was determined by measure SEAP levels at 620-655 nm. % induction was calculated from fold change in luminescence/absorbance compared to DMSO treated sample. EC50 values are generated by curve fit in Xlfit.
(§4) FIG. 22 depicts cells stably expressing both or either one of the reporters to measure IRF and NF-kB activity were treated with a range of concentrations of compound 2 or DMSO control for 20 hours. IRF activity was assessed using QUANTI-luc to measure levels of Lucia and NF-kB activity was determined by measure SEAP levels at 620-655 nm. % induction was calculated from fold change in luminescence/absorbance compared to DMSO treated sample. EC50 values are generated by curve fit in Xlfit.
(§5) FIG. 24 depicts cells stably expressing both or either one of the reporters to measure IRF and NF-kB activity were treated with a range of concentrations of compound 3 or DMSO control for 20 hours. IRF activity was assessed using QUANTI-luc to measure levels of Lucia and NF-kB activity was determined by measure SEAP levels at 620-655 nm. % induction was calculated from fold change in luminescence/absorbance compared to DMSO treated sample. EC50 values are generated by curve fit in Xlfit.
(§6) FIG. 27 depicts cells stably expressing both or either one of the reporters to measure IRF and NF-kB activity were treated with a range of concentrations of compound 4 or DMSO control for 20 hours. IRF activity was assessed using QUANTI-luc to measure levels of Lucia and NF-kB activity was determined by measure SEAP levels at 620-655 nm. % induction was calculated from fold change in luminescence/absorbance compared to DMSO treated sample. EC50 values are generated by curve fit in Xlfit.
as §3

A further assay deals with T1, wild type STING (Homo sapiens, UniProt Q86WV6, H232R).
T1 construct: expressed in transfected cells; host or cells: THP1-Dual-KI-STING-R232 (made from THP-Dual-STING KO cells)
Briefly: IRF/NF-kB reporter cells, wild type STING. As to conditions: 20 hours. The protocol: as §4, §5, §6
(§7) Cells grown in complete media were treated with various concentrations of a compound of the disclosure or DMSO control. […] After 20 h incubation, IRF activity was assessed using QUANTI-luc to measure levels of Lucia and NF-kB activity was determined by measure SEAP levels at 620-655 nm. % induction was calculated from fold change in luminescence/absorbance compared to DMSO treated sample. […]

Assay [2] concerns the target T2, R71H-G230A-R293Q (HAQ) variant of hSTING (Homo sapiens, UniProt Q86WV6, G230A/H232R/R293Q/R71H).
T2 construct: THP1-Dual-WT cells express STING-HAQ variant; endogenous in cells; host or cells: THP1-Dual-WT cells
Briefly: IRF/NF-kB reporter cells, STING HAQ variant. As to conditions: 20 hours. How it is done: as §4, §5, §6, §7

A further assay has as its target T3, wt-mSTING (Mus musculus, UniProt Q3TBT3).
T3 construct: endogenous in cells
T3 sequence (Q3TBT3 1-378): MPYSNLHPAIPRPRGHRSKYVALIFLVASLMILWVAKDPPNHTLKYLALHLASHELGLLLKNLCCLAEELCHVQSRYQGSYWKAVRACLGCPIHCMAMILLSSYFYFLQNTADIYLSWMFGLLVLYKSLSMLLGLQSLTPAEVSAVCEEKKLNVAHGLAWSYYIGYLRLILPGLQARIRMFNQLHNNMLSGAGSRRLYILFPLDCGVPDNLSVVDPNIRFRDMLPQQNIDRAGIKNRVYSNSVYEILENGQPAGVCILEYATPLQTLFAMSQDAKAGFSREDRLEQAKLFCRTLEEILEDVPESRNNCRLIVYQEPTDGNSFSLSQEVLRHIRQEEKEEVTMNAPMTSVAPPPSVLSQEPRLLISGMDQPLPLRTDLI
The assay is described as follows: IRF/NF-kB reporter cells, wt-mSTING. Particulars: 20 hours. The protocol: as §4, §5, §6, §7

Assay [3] deals with mouse bone marrow derived dendritic cells (DCs) and macrophages. Briefly: ISG gene expression (Taqman) in mouse bone marrow derived dendritic cells and macrophages. As to conditions: 20 hours. How it is done: FIG. 23 depicts cryopreserved mouse bone marrow derived dendritic cells (DCs) and macrophages treated with a range of concentrations of compound 2 or DMSO control for 20 hours. Cell pellets were harvested to collect total RNA. The gene expression levels of ISGs were measured by Taqman Assays.
Background: Real-time PCR tracks product formation cycle by cycle.

Setting [4] is: Homo sapiens, THP-1, 20 h incubation.

T1 sequence (Q86WV6 whole entry H232R): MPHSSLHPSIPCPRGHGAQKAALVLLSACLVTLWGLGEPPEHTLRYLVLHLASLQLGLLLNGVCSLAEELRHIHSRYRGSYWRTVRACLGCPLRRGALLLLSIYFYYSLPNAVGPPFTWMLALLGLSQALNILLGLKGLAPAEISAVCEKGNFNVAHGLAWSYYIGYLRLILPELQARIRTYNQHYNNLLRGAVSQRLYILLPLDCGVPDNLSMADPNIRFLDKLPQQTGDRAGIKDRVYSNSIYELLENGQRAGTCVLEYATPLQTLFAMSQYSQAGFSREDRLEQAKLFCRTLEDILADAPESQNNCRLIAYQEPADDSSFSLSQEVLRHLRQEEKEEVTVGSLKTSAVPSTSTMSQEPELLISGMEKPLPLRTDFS
T2 sequence (Q86WV6 whole entry R71H/G230A/H232R/R293Q): as the sequence (Q86WV6 whole entry H232R) above, with R71H, G230A, R293Q counted along it

For the compound `CCCCCCCCCCOc1ccc(C(=O)Oc2ccc(CSP3(=O)OC[C@H]4O[C@@H](n5cnc6c(N)ncnc65)[C@H](OP(=O)(O)OC[C@H]5O[C@@H](n6ccc(=O)[nH]c6=O)[C@H](F)[C@@H]5O3)[C@@H]4F)cc2)cc1` (some centres unmarked) [Compound 2], the pEC50 in the assay on IRF (20 h incubation) is over 7.30; in the assay on NF-κβ (20 h incubation), 5.70 to 6.00. For the same compound, the “IRF activity in STING KO cells” value in assay [1] is “Neither compound induced IRF activity”; in the assay on STING KO cells it was “did not induce”. In addition, in the assay with STING KO cells, the “NF-κβ in STING KO cells” value was “did not induce”. Moreover, at wild type STING, the “activity against wild type STING” value is “possess activity”. Moreover, the “activity against R71H-G230A-R293Q (HAQ) variant of hSTING” value in assay [2] is “possess activity”. The “activity against wt-mSTING” value at wt-mSTING is “possess activity”. Further, the ISG expression result in assay [3] was “induces ISG expression”.
`Nc1ncnc2c1ncn2[C@@H]1O[C@@H]2COP(=O)(O)O[C@H]3[C@@H](F)[C@H](n4ccc(=O)[nH]c4=O)O[C@@H]3COP(=O)(O)O[C@@H]1[C@@H]2F` [Compound 1] had a pEC50 with IRF (setting [4]) of under 5.70. Further, in the assay with NF-κβ (setting [4]), the pEC50 is under 5.70. Moreover, in the assay with STING KO cells, the “IRF activity in STING KO cells” value is reported as “did not induce”, the “NF-κβ in STING KO cells” value is recorded as “did not induce” and the “STING dependence of activity” value was “possess STING dependent activity”.

As usually defined, the pEC50 is the EC50 on a negative log10 scale, so that one unit is a factor of ten. Read a high pEC50 as a low EC50.
